Laboratory results from PubChem BioAssay (NCI).
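Cells were grown in 96-well plates and exposed to each compound for 48 hours at five concentrations; endpoints were interpolated linearly between bracketing concentrations, or set to the highest concentration if not reached. TGI is the concentration that stops growth completely.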

Tests used:
Assay in all cases: inhibition of tumour cell growth, NCI panel, 48 h
PC-3 prostate = test system: PC-3 prostate
IGROV1 ovarian = test system: IGROV1 ovarian
MALME-3M melanoma = test system: MALME-3M melanoma
SF-295 CNS = test system: SF-295 CNS
SN12C renal = test system: SN12C renal
A498 renal = test system: A498 renal
786-0 renal = test system: 786-0 renal
HS 578T breast = test system: HS 578T breast
UACC-62 melanoma = test system: UACC-62 melanoma
TK-10 renal = test system: TK-10 renal
T-47D breast = test system: T-47D breast
SW-620 colon = test system: SW-620 colon
U251 CNS = test system: U251 CNS
UACC-257 melanoma = test system: UACC-257 melanoma
OVCAR-3 ovarian = test system: OVCAR-3 ovarian

SMILES	TGI (PC-3 prostate)	TGI (IGROV1 ovarian)	TGI (MALME-3M melanoma)	TGI (SF-295 CNS)	TGI (SN12C renal)	TGI (A498 renal)	TGI (786-0 renal)	TGI (HS 578T breast)	TGI (UACC-62 melanoma)	TGI (TK-10 renal)	TGI (T-47D breast)	TGI (SW-620 colon)	TGI (U251 CNS)	TGI (UACC-257 melanoma)	TGI (OVCAR-3 ovarian)
c1csc(-c2ccc(-c3ccsc3)s2)c1	> 100 µM	> 100 µM	> 100 µM	> 100 µM	> 100 µM	> 100 µM	> 100 µM	> 100 µM	> 100 µM	> 100 µM	> 100 µM	> 100 µM	> 100 µM	> 100 µM	–
Cc1ccc(S(=O)(=O)N/N=C2/C3C(CC2(C)C)C2(C)CCCC3(C)C2O)cc1 (centres undefined)	29.7 µM	69.8 µM	45.4 µM	29.6 µM	36.5 µM	–	45.3 µM	55.6 µM	30 µM	> 100 µM	54.5 µM	–	32.1 µM	33.3 µM	> 100 µM
Clc1ccc(/C=C/c2nc(-c3ccc(Cl)cc3)cn3c2nc2ccccc23)cc1	> 100 µM	> 100 µM	> 100 µM	–	> 100 µM	> 100 µM	> 100 µM	> 100 µM	> 100 µM	> 100 µM	> 100 µM	> 100 µM	> 100 µM	> 100 µM	> 100 µM
Clc1cc2nnn(C3CCCCO3)c2cc1Cl (centres undefined)	> 100 µM	> 100 µM	> 100 µM	> 100 µM	> 100 µM	> 100 µM	> 100 µM	> 100 µM	> 100 µM	> 100 µM	> 100 µM	–	> 100 µM	> 100 µM	> 100 µM
COC(=O)c1ccc(-n2c(C)nc(=O)c(-c3ccccc3)c2C)cc1	> 100 µM	> 100 µM	> 100 µM	> 100 µM	> 100 µM	> 100 µM	> 100 µM	> 100 µM	–	> 100 µM	> 100 µM	> 100 µM	> 100 µM	> 100 µM	> 100 µM
c1ccc(CNCCCNCCCCNCCCNCc2ccccc2)cc1	11.2 µM	5.58 µM	5.01 µM	35.2 µM	15.5 µM	–	2.97 µM	3.74 µM	21.1 µM	18 µM	39.8 µM	9.13 µM	22.5 µM	31.1 µM	28.3 µM
O=C(Nc1ccc(Cl)cc1Cl)c1cc2nc3ccccc3c(=O)n2c2ccccc12	> 10 µM	> 10 µM	> 10 µM	> 10 µM	–	> 10 µM	> 10 µM	> 10 µM	> 10 µM	> 10 µM	> 10 µM	> 10 µM	> 10 µM	> 10 µM	> 10 µM
N=c1oc2ccc([N+](=O)[O-])cc2cc1C(=O)Nc1ccccn1	43.9 µM	> 100 µM	77.6 µM	–	> 100 µM	> 100 µM	42.9 µM	78.5 µM	> 100 µM	–	> 100 µM	> 100 µM	> 100 µM	> 100 µM	65.8 µM
CCSC1=C(C#N)C2(CCCCC2)C2=C(CC(C)(C)CC2=O)N1	> 100 µM	> 100 µM	78.2 µM	–	> 100 µM	64.6 µM	> 100 µM	> 100 µM	> 100 µM	> 100 µM	> 100 µM	> 100 µM	> 100 µM	> 100 µM	–
CC(C)CC(NC=O)C(=O)NC(Cc1ccccc1)NC(=O)CNC(=O)C(C)NC(=O)OC(C)(C)C (centres undefined)	> 100 µM	> 100 µM	> 100 µM	> 100 µM	> 100 µM	> 100 µM	> 100 µM	> 100 µM	> 100 µM	> 100 µM	> 100 µM	> 100 µM	> 100 µM	–	> 100 µM
CCCC1=NC(C(F)(F)F)(C(F)(F)F)N=C(N2CCOCC2)O1	> 100 µM	> 100 µM	> 100 µM	> 100 µM	> 100 µM	–	> 100 µM	> 100 µM	> 100 µM	> 100 µM	> 100 µM	> 100 µM	> 100 µM	> 100 µM	> 100 µM
CC(=O)[C@H]1[C@@H](OCc2ccccc2)O[N+]([O-])=C(C)[C@@H]1c1ccccc1	> 100 µM	> 100 µM	47 µM	> 100 µM	–	> 100 µM	31.4 µM	72.4 µM	> 100 µM	> 100 µM	58.1 µM	31.7 µM	> 100 µM	> 100 µM	57.7 µM
O=C(O)c1cccc(S(=O)(=O)NN2C(=O)CSC2c2ccccc2Cl)c1 (centres undefined)	> 100 µM	> 100 µM	> 100 µM	> 100 µM	> 100 µM	–	> 100 µM	> 100 µM	> 100 µM	> 100 µM	> 100 µM	> 100 µM	> 100 µM	> 100 µM	> 100 µM
